Assays:
[1] = system: T-Rex 293 cell line SC3 cells lacking increased expression of androgen receptor protein; experiment: Cellular growth inhibition, T-Rex 293 SC3 cells without doxycycline (no increased androgen receptor expression), CellTiter-Glo; format: cell-based; details: T-Rex 293 SC3 cells not exposed to doxycycline (no increased androgen receptor expression), 72 hours
Method in brief: (§1)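 Doxycycline (10 ng/mL) was either included or omitted to toggle wild-type androgen receptor expression in SC3 cells, a T-Rex 293 clone, grown in stripped-serum, phenol red-free medium. After 72 hours with compound, viable cells were quantified by CellTiter-Glo 2.0.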

[2] = system: VCaP cells; experiment: Cellular growth inhibition assay for VCaP cells, CellTiter-Glo; format: cell-based, human; details: Homo sapiens, 72 hours
Method in brief: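 GI50 values come from four-parameter curve fits of luminescence data normalized to a zero baseline. Compound, in medium with 0.5% DMSO, was added one day after plating and left for 72 h before CellTiter-Glo 2.0 addition.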

[3] = target: T1, BRD4-BD1 (Homo sapiens, UniProt O60885); experiment: Binding affinity to BRD4-BD1 (bromoKdELECT assay); details: 11-point 3-fold dilution series
T1 construct: made in house; host or cells: T7 phage grown in an E. coli host derived from the BL21 strain

[4] = system: T-Rex 293 cell line SC3 cells having increased expression of androgen receptor protein due to exposure to doxycycline; experiment: Cellular growth inhibition, T-Rex 293 SC3 cells with doxycycline (increased androgen receptor expression), CellTiter-Glo; format: cell-based; details: T-Rex 293 SC3 cells with 10 ng/mL doxycycline (increased androgen receptor expression), 72 hours, CellTiter-Glo 2.0
Method in brief: as §1

Compound	GI50 [1] [nM]	GI50 [2] [nM]	Kd [3] [nM]	GI50 [4] [nM]
CCS(=O)(=O)Nc1ccc(Oc2ccc(F)c(OCCOC3CCN(c4ncc(C(=O)N[C@H]5C(C)(C)[C@H](Oc6ccc(C#N)c(Cl)c6)C5(C)C)cn4)CC3)c2F)c(-c2cn(C)c(=O)c3[nH]ccc23)c1 [Compound I-65]	< 500	< 500	500 to 2500	< 500
CCS(=O)(=O)Nc1ccc(Oc2cccc(COC3CCN(c4ncc(C(=O)N[C@H]5C(C)(C)[C@H](Oc6ccc(C#N)c(Cl)c6)C5(C)C)cn4)CC3)c2)c(-c2cn(C)c(=O)c3[nH]ccc23)c1 [Compound I-18, N-((1r, 3r)-3-(3-chloro-4-cyanophenoxy)-2,2,4,4-tetramethylcyclobutyl)-2-(4-((3-(4-(ethylsulfonamido)-2-(6-methyl-7-oxo-6,7-dihydro-1H-pyrrolo[2,3-c]pyridin-4-yl)phenoxy)benzyl)oxy)piperidin-1-yl)pyrimidine-5-carboxamide]	< 500	< 500	500 to 2500	< 500
Cn1cc(-c2cc(C(C)(C)O)ccc2Oc2cccc(OCCN3CCN(c4ncc(C(=O)N[C@H]5C(C)(C)[C@H](Oc6ccc(C#N)c(Cl)c6)C5(C)C)cn4)CC3)c2)c2cc[nH]c2c1=O [Compound I-96]	< 500	< 500	500 to 2500	< 500
CCS(=O)(=O)Nc1ccc(Oc2cccc(OCCOCCOC3CCN(c4ncc(C(=O)N[C@H]5C(C)(C)[C@H](Oc6ccc(C#N)c(Cl)c6)C5(C)C)cn4)CC3)c2)c(-c2cn(C)c(=O)c3[nH]ccc23)c1 [Compound I-13]	< 500	< 500	500 to 2500	< 500
CCS(=O)(=O)Nc1ccc(Oc2cccc(OCCOC3CCN(c4ncc(C(=O)N[C@H]5C(C)(C)[C@H](Oc6ccc(C#N)c(Cl)c6)C5(C)C)cn4)CC3)c2)c(-c2cn(C)c(=O)c3[nH]ccc23)c1 [Compound I-6]	< 500	< 500	> 2500	< 500
Cn1cc(-c2ccccc2Oc2cccc(OCCOC3CCN(c4ncc(C(=O)N[C@H]5C(C)(C)[C@H](Oc6ccc(C#N)c(Cl)c6)C5(C)C)cn4)CC3)c2)c2cc[nH]c2c1=O [Compound I-61, N-((1r, 3r)-3-(3-chloro-4-cyanophenoxy)-2,2,4,4-tetramethylcyclobutyl)-2-(4-(2-(3-(2-(6-methyl-7-oxo-6,7-dihydro-1H-pyrrolo[2,3-c]pyridin-4-yl)phenoxy)phenoxy)ethoxy)piperidin-1-yl)pyrimidine-5-carboxamide]	1500 to 3000	< 500	> 2500	< 500
CCS(=O)(=O)c1ccc(Oc2cccc(OCCOC3CCN(c4ccc(C(=O)N[C@H]5C(C)(C)[C@H](Oc6ccc(C#N)c(Cl)c6)C5(C)C)cn4)CC3)c2F)c(-c2cn(C)c(=O)c3[nH]ccc23)c1 [Compound I-185]	< 500	< 500	50 to 500	< 500
CCS(=O)(=O)Nc1ccc(Oc2cccc(N3CC(OC4CCN(c5ncc(C(=O)N[C@H]6C(C)(C)[C@H](Oc7ccc(C#N)c(Cl)c7)C6(C)C)cn5)CC4)C3)c2)c(-c2cn(C)c(=O)c3[nH]ccc23)c1 [Compound I-80]	< 500	< 500	50 to 500	< 500

Reference: patent publication US20250388605A1, “HETEROBIFUNCTIONAL COMPOUNDS AND METHODS OF TREATING DISEASE” (Halda Therapeutics OpCo, Inc., priority 2022, published 2025)
